The values that follow are results of earlier work, collected in patent US20060106070A1, “Novel pyridine-based metal chelators as antiviral agents” (Bioflexis, LLC, priority 2004, published 2006).

Series [1] deals with T1, HIV-1 integrase (Human immunodeficiency virus type 1 group M subtype B, UniProt P12497).
T1 construct: HIV-1 recombinant IN (HIV-1NL 4-3 Integrase); purchased NIH AIDS Reagent program 2959
The following applies: result in words.

For series [2], the target named is T1, HIV-1 integrase. Conditions: result in words. This is another data set of the same source.

Take `O=C(O)C(=O)CC(=O)c1cc(OCc2ccccc2)cc(OCc2ccccc2)c1` [L-708, 906]: the “inhibition of strand transfer reaction” value at HIV-1 integrase [1] is recorded as “inhibit strand transfer reaction”. The “inhibition of 3′ processing” value at HIV-1 integrase [2] was “do not inhibit 3′ processing”.

With `O=C(O)C(=O)CC(=O)c1cccn1Cc1ccc(F)cc1` [L-731,988], the “inhibition of strand transfer reaction” value at HIV-1 integrase [1] was “inhibit strand transfer reaction”. In addition, the “inhibition of 3′ processing” value at HIV-1 integrase [2] is recorded as “do not inhibit 3′ processing”.
